Reference: US20100324130A1, “DAA PERIPHERAL BENZODIAZEPINE RECEPTOR LIGAND FOR CANCER IMAGING AND TREATMENT” (priority 2006, published 2010)

How the values were obtained:
[1] = target: T1, PBR protein harvested from MA-10 cells (Mus musculus, UniProt P50637); test: Competitive binding study against [3H]PK11195 on PBR protein; conditions: amino group capped by acetyl group; [3H]PK11195 radioligand; 4° C., 90 minutes
T1 construct: PBR protein was harvested from MA-10 cells and stocked in PBS at 10 mg/mL; endogenous in cells; host or cells: MA-10 cells
Experimental: More specifically, conjugable form of DAA1106, with 3-9 carbon spacers, has been synthesized, characterized, and used in a competitive binding assay. The amino group was capped by acetyl group to reduce non-specific binding (Scheme 2).
PBR protein was harvested from MA-10 cells and stocked in PBS at 10 mg/mL. The stock solution was diluted to 30 μg/100 μL for the binding study. [^3H]PK11195 was used as radioligand and the specific activity of the stock solution was 73.6 Ci/mmole (˜11.8 μM). A diluted solution of 15 nM in PBS was prepared before use. For each of the molecules tested (NIRDAA, LissDAA and C3-9DAA1106 amide), eight concentrations of solutions from 3×10^−4M to 3×10^−11M in PBS buffer were prepared. 30 test tubes were used for the study of each molecule. 3 of them were used for total binding (100 μL 15 nM [^3H]PK11195+100 μL PBS buffer+100 μL 30 μg/100 μL PBR protein), 3 test tubes were for non-specific binding (100 μL 15 nM [^3H]PK11195+100 μL 15 μM PK11195+100 μL 30 μg/100 μL PBR protein) and the other 24 were triplicates for each doses of competitor ligand (100 μL, 15 nM [^3H]PK11195+100 μL competitor solution+100 μL 30 μg/100 μL PBR protein). All test tubes were vortexed and then incubated at 4° C. for 90 minutes. Reactions were stopped by filtration on FG/B filters using the Brandel binding apparatus through Whatman GF/B filters (Brandel, Gaithersburg, Md.). The filters (24 positions each) were preincubated in PBS/H2O containing 0.05% PEI for 20-30 minutes before filtration. The filters were then washed 5 times with PBS, put in scintillation vials, vortexed in scintillation fluid and counted. The […] and Ki (equilibrium dissociation constant) values were calculated using the PRISM program package

PBR [2] = conditions: cited from earlier work; for IC50: comparison values for parent ligand
PBR [3] = conditions: cited from earlier work
[4] = tested on: human Jurkat T lymphocyte cells (low PBR expressing); test: Apoptosis study, CellTiter-Glo luminescent cell viability assay; assay type: cell-based
Experimental: (§1) Apoptosis Study Using Etoposide and EtoposideDAA 50,000 MDA-MB-231 human breast tumor (high PBR expressing) or human Jurkat T lymphocyte cells (low PBR expressing) cells/well were added to 96 well plates and incubated under standard tissue culture conditions (37° C., 5% CO2) for 24 hours. […] After three days, CellTiter-Glo luminescent cell viability assay (Promega) was added. The plates were incubated for an additional one hour and the […] was counted under Xenogen IVIS imaging system. Three wells were used for control which had cells treated with viability assay without drug. Blank […] not have cells or drug, but had viability assay. Medium samples had cells only, without drug or viability assay.

[5] = tested on: MDA-MB-231 human breast tumor (high PBR expressing) cells; test: as above; assay type: cell-based; conditions: MDA-MB-231, three days
Experimental: as §1

SMILES	IC50 [1] [µM]	Ki [1] [µM]	other results
COc1ccc(NCCCCCCNC(C)=O)c(CN(C(C)=O)c2cc(F)ccc2Oc2ccccc2)c1 [C6DAA1106]	0.35 ± 0.22	0.052 ± 0.03	
COc1ccc(NCCCCCCCCNC(C)=O)c(CN(C(C)=O)c2cc(F)ccc2Oc2ccccc2)c1 [C8DAA1106]	0.24	0.043 ± 0.019	
COc1ccc(OC)c(CN(C(C)=O)c2cc(F)ccc2Oc2ccccc2)c1 [DAA1106]			IC50 (PBR [2]): 0.00028 µM; binding affinity for PBR (PBR [2]; fentomolar): 10^−15 M; concentration to displace PBR complexed PK11195 and Ro5-4864 (PBR [3]): 10^−15-10^−12 M
COc1ccc(OC)c(CN(C(C)=O)c2cc(F)ccc2Oc2ccccc2)c1 [[^11C]DAA1106]			IC50 (PBR [2]): 0.00091 µM
COc1cc([C@@H]2c3cc4c(cc3[C@@H](O[C@@H]3O[C@@H]5CO[C@@H](C)O[C@H]5[C@H](O)[C@H]3O)[C@H]3COC(=O)[C@H]23)OCO4)cc(OC)c1O [etoposide, reference compound]			concentration at which cells began to respond ([4]; Jurkat, three days): 10^−6 M; concentration at which cells effectively respond ([4]; Jurkat, three days): 10^−5 M; concentration at which cells were beginning to respond [5]: 10^−4 M
COc1ccc(NCCCCCCNC(=O)CCOc2c(OC)cc([C@@H]3c4cc5c(cc4[C@@H](OC4OC6COC(C)OC6C(O)C4O)[C@H]4COC(=O)[C@H]34)OCO5)cc2OC)c(CN(C(C)=O)c2cc(F)ccc2Oc2ccccc2)c1 (stereo partly drawn) [etoposide-C6DAA1106]			toxicity to normal cells compared with etoposide ([4]; Jurkat (low PBR expressing)): less toxicity to normal cells than etoposide; concentration at which cells effectively respond ([4]; Jurkat, three days): 10^−4 M; concentration at which cells were beginning to respond [5]: 10^−4 M

Second part, led by results:

IC50 [1] [µM]	Ki [1] [µM]	SMILES	other results
0.39	0.068 ± 0.023	COc1ccc(NCCCNC(C)=O)c(CN(C(C)=O)c2cc(F)ccc2Oc2ccccc2)c1 [C3DAA1106]	
0.8	0.141 ± 0.036	COc1ccc(NCCCCNC(C)=O)c(CN(C(C)=O)c2cc(F)ccc2Oc2ccccc2)c1 [C4DAA1106]	
0.84	0.149 ± 0.049	COc1ccc(NCCCCCNC(C)=O)c(CN(C(C)=O)c2cc(F)ccc2Oc2ccccc2)c1 [C5DAA1106]	
0.4	0.071 ± 0.033	COc1ccc(NCCCCCCCNC(C)=O)c(CN(C(C)=O)c2cc(F)ccc2Oc2ccccc2)c1 [C7DAA1106]	
0.29	0.051 ± 0.017	COc1ccc(NCCCCCCCCCNC(C)=O)c(CN(C(C)=O)c2cc(F)ccc2Oc2ccccc2)c1 [C9DAA1106]	
